The test system of assay [1] is VA10. The experiment in a line: Induction of CAMP mRNA expression in human VA10 cells at 4 mM after 24 hrs by RT-PCR analysis. The format is functional, cell-based.
The test system of assay [2] is VA10. The experiment in a line: Induction of CAMP mRNA expression in human VA10 cells after 48 hrs by RT-PCR analysis. It counts as functional, cell-based.
Assay [3] deals with U-937. The experiment in a line: Induction of DEFB1 mRNA expression in human U937 cells at 4 mM after 24 to 48 hrs by RT-PCR analysis. It counts as functional, cell-based.
The nature of assay [4]: Induction of CAMP mRNA expression in human VA10 cells at 4 mM after 24 hrs by RT-PCR analysis in presence of 1,25(OH)2D3 relative to control. The format is functional.
Assay [5] deals with U-937. Put plainly: Induction of CAMP mRNA expression in human U937 cells at 4 mM after 8 to 48 hrs by RT-PCR analysis. The format is functional, cell-based.
Assay [6] deals with VA10. Put plainly: Induction of CAMP mRNA expression in human VA10 cells at 4 mM after 24 hrs by RT-PCR analysis in presence of p38 kinase inhibitor SB203580 treated 1 hr before compound challenge. The format is functional, cell-based.
The subject of assay [7] is VA10. Put plainly: Induction of LL-37 protein expression in human VA10 cells at 20 nM after 24 hrs by Western blotting. It counts as functional, cell-based.
For assay [8], the system named is VA10. Put plainly: Induction of LL-37 protein expression in human VA10 cells at 4 mM after 24 hrs by Western blotting. The format is functional, cell-based.
For assay [9], the system named is VA10. Put plainly: Induction of DEFB3 mRNA expression in human VA10 cells at 4 mM after 24 hrs by RT-PCR analysis. The format is functional, cell-based.
The subject of a further assay is HT-29. Put plainly: Induction of CAMP mRNA expression in human HT-29 cells at 4 mM after 8 to 48 hrs by RT-PCR analysis. The format is functional, cell-based.
For assay [10], the system named is VA10. The experiment in a line: Induction of CAMP mRNA expression in human VA10 cells at 4 mM after 24 hrs by RT-PCR analysis in presence of ERK1/2 inhibitor U0126 treated 1 hr before compound challenge. The format is functional, cell-based.
The test system of assay [11] is VA10. The experiment in a line: Induction of CAMP mRNA expression in human VA10 cells at 4 mM by RT-PCR analysis. To be noted: TDE = time-dependent effect. The format is functional, cell-based.
For assay [12], the system named is VA10. Put plainly: Induction of DEFB2 mRNA expression in human VA10 cells at 4 mM after 24 hrs by RT-PCR analysis. It counts as functional, cell-based.
In another assay the test system is A498. The experiment in a line: Induction of CAMP mRNA expression in human A498 cells at 4 mM after 8 to 48 hrs by RT-PCR analysis. The format is functional, cell-based.
For assay [13], the system named is VA10. The experiment in a line: Induction of DEFB4 mRNA expression in human VA10 cells at 4 mM after 24 hrs by RT-PCR analysis. It counts as functional, cell-based.
Assay [14] has as its system VA10. Put plainly: Induction of CAMP mRNA expression in human VA10 cells at 4 mM after 24 hrs by RT-PCR analysis in presence of JNK inhibitor SP600125 treated 1 hr before compound challenge. The format is functional, cell-based.
The subject of assay [15] is VA10. The experiment in a line: Induction of DEFB1 mRNA expression in human VA10 cells at 4 mM after 24 hrs by RT-PCR analysis. The format is functional, cell-based.
Assay [16] deals with VA10. The experiment in a line: Induction of CAMP mRNA expression in human VA10 cells at 4 mM after 24 hrs by RT-PCR analysis in presence of protein synthesis inhibitor CHX treated 1 hr before compound challenge. The format is functional, cell-based.

The record followed here is ChEMBL document CHEMBL1649276, “Phenylbutyrate induces antimicrobial peptide expression” (2009).

The source made the active and inactive calls. The rule behind the calls is not given here.

Consider `CC(Cc1ccccc1)C(=O)O` (stereo not given), for which, in the assay on VA10 [1], the result was Active.
On the same count and under the same terms, in the case of `CCC(C)(C)C(=O)O` it was “inactive”.
For `O=C([O-])CCCc1ccccc1.[Na+]` [SODIUM PHENYLBUTYRATE], the Activity entry in the assay with VA10 [2] was “Dose-dependent effect”; in the assay on VA10 [11], “tde”. Also, the result with U-937 [3], in the assay with VA10 [6], with VA10 [9], in the assay with VA10 [10], in the assay on VA10 [12] and in the assay on VA10 [13] was inactive. Further, the outcome in the assay with VA10 [14] and with VA10 [16] was inactive. In assay [4], the “fold change (FC)” value is 100. Besides, the result with U-937 [5], in the assay on VA10 [7], in the assay on VA10 [8], in the assay with HT-29, in the assay on VA10 [1] and in the assay on A498 was Active. For the same compound, in the assay on VA10 [15], the result was Active.
